Source: ChEMBL document CHEMBL1201862, “PubChem BioAssay data set” (2004)
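1) Cells in 96-well plates. 2) Compound, 48 h, 5 concentrations. 3) Linear interpolation between surrounding doses. 4) Unreached endpoint = highest concentration. GI50 marks 50% less growth.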 Calls of active or inactive are those of the source. Cut-off read from the data, not from the text of the source: active = GI50 up to about 1.1 µM and inactive = higher. Where a SMILES comes first, the peptide text is derived from it. [ ]: non-standard residue; d: D form. Ac5c = NC1(C(=O)O)CCCC1

Legend:
Test in all cases: NCI-60 cell line screen, 48 h
[1] = test system: MOLT-4
[2] = test system: SNB-19
[3] = test system: SN12C
[4] = test system: 786-0
[5] = test system: ACHN
[6] = test system: SF-539
[7] = test system: TK-10
[8] = test system: OVCAR-8
[9] = test system: NCI-H226
[10] = test system: U-251
[11] = test system: PC-3
[12] = test system: HL-60
[13] = test system: HOP-92
[14] = test system: UACC-62
[15] = test system: NCI-H460
[16] = test system: A549
[17] = test system: Hs-578T
[18] = test system: K562
[19] = test system: Malme-3M
[20] = test system: T47D

Measured: GI50

Cc1ccc(NC(=O)C(=O)C2C(=O)C3=C(CC2(C)C)NC2C=CC=CC2S3)c(C)c1 (stereo unspecified)
inactive: [1] 99.8 µM | [2] > 100 µM | [3] > 100 µM | [4] 66.4 µM | [5] > 100 µM | [6] 43.8 µM | [7] > 100 µM | [8] 37.5 µM | [9] 56.2 µM | [10] 59 µM | [11] > 100 µM | [12] > 100 µM | [13] 38.1 µM | [14] > 100 µM | [15] > 100 µM | [16] > 100 µM | [17] 51.3 µM

O=C1/C(=C/c2ccco2)N=C(c2ccccc2)N1c1ccc(S(=O)(=O)Nc2nccs2)cc1
inactive: [1] 43.4 µM | [18] > 100 µM | [19] > 100 µM | [3] > 100 µM | [4] > 100 µM | [5] 74.6 µM | [6] > 100 µM | [7] > 100 µM | [8] 65.5 µM | [20] 80.4 µM | [9] > 100 µM | [10] 71.9 µM | [11] 86.3 µM | [12] 89.9 µM | [13] 73.8 µM | [14] 93.5 µM | [15] 45.9 µM | [16] 89.7 µM

CCOC(=O)C(CCSC)(CCSC)C(=O)OCC
inactive: [1] > 100 µM | [18] > 100 µM | [19] > 100 µM | [2] > 100 µM | [3] > 100 µM | [4] > 100 µM | [5] > 100 µM | [6] > 100 µM | [7] > 100 µM | [8] > 100 µM | [20] > 100 µM | [9] > 100 µM | [10] > 100 µM | [11] > 100 µM | [14] 18.7 µM | [15] > 100 µM | [16] > 100 µM | [17] > 100 µM

Clc1ccc2nc3[nH]nc(Cl)c3nc2c1
inactive: [1] 30.5 µM | [18] 52.4 µM | [2] 45.6 µM | [3] 38.5 µM | [4] 61.5 µM | [5] 52.8 µM | [6] 40.8 µM | [7] 56.5 µM | [8] 71.3 µM | [20] 44.1 µM | [10] 60.7 µM | [11] 34.6 µM | [14] 45.3 µM | [15] 40.1 µM | [16] 36.8 µM | [17] 22.7 µM

CC(=O)NC1C(OCC(=O)NCCNc2ccc([N+](=O)[O-])c3[nH]c4ccccc4c(=O)c23)C(O)C(CO)OC1(C)OCc1ccccc1 (stereo unspecified)
inactive: [1] > 100 µM | [18] > 100 µM | [19] > 10 µM | [2] > 100 µM | [3] > 100 µM | [4] > 100 µM | [5] > 100 µM | [6] > 100 µM | [7] > 100 µM | [8] > 100 µM | [20] > 100 µM | [9] > 100 µM | [10] > 100 µM | [11] > 100 µM | [14] > 100 µM | [15] 50.4 µM | [16] > 100 µM | [17] > 100 µM

CCCCSC1=N/C(=C\c2ccco2)C(=O)N1
inactive: [1] 36.1 µM | [19] 29.2 µM | [2] 63.8 µM | [3] 99.1 µM | [4] 87.3 µM | [5] > 100 µM | [7] 59.6 µM | [8] 44.1 µM | [20] 16.5 µM | [9] 51.5 µM | [10] 74.6 µM | [11] 46.1 µM | [12] 18.2 µM | [14] 42.1 µM | [15] 39.5 µM | [16] 43.6 µM | [17] 29.9 µM

CSc1c(C#N)c(=O)n(N)c2c1c(C)nn2-c1ccccc1
inactive: [1] 27.5 µM | [18] 31 µM | [19] 22.4 µM | [2] 28.4 µM | [3] 34.4 µM | [4] 40.5 µM | [6] 19 µM | [7] 30.1 µM | [8] 20.8 µM | [20] 25.8 µM | [9] 24.8 µM | [10] 28.1 µM | [11] 19.7 µM | [12] 26.2 µM | [14] 22 µM | [15] > 100 µM | [16] 21.9 µM | [17] 51.4 µM

CCOC(=O)C1=NN(c2ccc([N+](=O)[O-])cc2)[C@@]2(C)C[C@]3(c4ccccc4)N(c4ccc([N+](=O)[O-])cc4)N=C(C(=O)OCC)N3c3ccccc3N12
inactive: [1] > 100 µM | [18] > 100 µM | [19] > 100 µM | [2] > 100 µM | [3] > 100 µM | [4] > 100 µM | [5] > 100 µM | [6] > 100 µM | [7] > 100 µM | [8] > 100 µM | [20] > 100 µM | [9] > 100 µM | [10] > 100 µM | [11] > 100 µM | [12] > 100 µM | [14] > 100 µM | [16] > 100 µM | [17] > 100 µM

Cc1ccccc1N/N=C1\C(=O)Nc2ccccc21
inactive: [1] > 100 µM | [18] > 100 µM | [2] > 100 µM | [3] 88.9 µM | [4] > 100 µM | [5] > 100 µM | [7] > 100 µM | [8] > 100 µM | [20] > 100 µM | [9] 41.7 µM | [10] > 100 µM | [11] > 100 µM | [12] > 100 µM | [14] > 100 µM | [15] > 100 µM | [16] > 100 µM | [17] > 100 µM

COc1ccccc1-c1cc(=O)c2ccc(OC)c(OC)c2o1
inactive: [1] 60.4 µM | [18] > 100 µM | [19] 92.5 µM | [2] 82.2 µM | [3] 63.1 µM | [4] 89.1 µM | [5] 39.4 µM | [6] > 100 µM | [7] 46.6 µM | [8] 54.6 µM | [20] 19.3 µM | [9] > 100 µM | [10] 46.1 µM | [12] 27.5 µM | [13] 28.2 µM | [14] 51.5 µM | [15] 49.5 µM | [16] 45.6 µM | [17] 41.7 µM

COC(=O)C1(NC(=O)C(C)NC(=O)C(CCCCN)NC(=O)C(CC(C)C)NC(C)=O)CCCC1 (stereo unspecified) (Ac-LKA[Ac5c]-OMe; configuration not given here)
inactive: [1] > 100 µM | [18] > 100 µM | [2] > 100 µM | [3] > 100 µM | [4] > 100 µM | [5] > 100 µM | [6] > 100 µM | [7] > 100 µM | [8] > 100 µM | [20] > 100 µM | [11] > 100 µM | [12] > 100 µM | [15] > 100 µM | [16] > 100 µM | [17] > 100 µM
